Patent US10988456B2, “O-aminoheteroaryl alkynyl-containing compound, preparation method therefor, and use thereof” (SHANGHAI INSTITUTE OF MATERIA MEDICA, CHINESE ACADEMY OF …, priority 2017, dated 2021)

What was measured:
[1] = test system: RET signaling pathway in TT and BaF3/CCDC6-RET cells; assay: Western blotting of RET signaling pathway activation in cells; format: cell-based; settings: compounds 2 hours; P-RET, P-AKT, P-ErK
Procedure: Detecting the Effect of Compounds on the Activation of RET Signaling Pathway in TT and BaF3/CCDC6-RET Cells by Western Blotting
The cells were seeded into a 12-well plate (250,000/well). After incubation for 18-24 hours, the compounds were added to react for 2 hours, and then the cells were collected and firstly washed once with cold PBS (containing 1 mmol sodium vanadate); then 1×SDS gel loading buffer (50 mmol Tris-HCl (pH 6.8), 100 mmol DTT, 2% SDS, 10% glycerol, 1 mmol sodium vanadate, 0.1% bromophenol blue) was added to lyse cells. The cell lysate was heated in a boiling water bath for 10 minutes, and then centrifuged at 12,000 rpm for 10 minutes at 4° C.
The supernatant was taken for SDS-PAGE electrophoresis (Mini-PROTEAN 3 Cell, Bio-Rad, Hercules, Calif., USA). After electrophoresis, the proteins were transferred to a nitrocellulose membrane using a semi-dry electrotransfer system (Amersham Life Sciences, Arlington Heights, Ill., USA). The nitrocellulose membrane was placed in a blocking solution (5% skim milk powder diluted in TBS containing 1 mmol sodium vanadate) for 2 hours at room temperature, and then the membrane was placed and reacted with a primary antibody at 4° C. overnight. […] The membrane was placed in a secondary antibody solution and reacted for 1-2 hours at room temperature. After the membrane was washed three times as above, the membrane was stained using ECL (Picece, Rockford, Ill.) reagent was used for staining and then developed.

Ret (V804M) = target: T1, Ret (V804M) (Homo sapiens, UniProt P07949, V804M); assay: Inhibition of RET-related mutant enzyme activity (ELISA); format: biochemical; settings: measured twice, Mean ± SD
T1 construct: purchased
T1 sequence (P07949 29-1114 V804M): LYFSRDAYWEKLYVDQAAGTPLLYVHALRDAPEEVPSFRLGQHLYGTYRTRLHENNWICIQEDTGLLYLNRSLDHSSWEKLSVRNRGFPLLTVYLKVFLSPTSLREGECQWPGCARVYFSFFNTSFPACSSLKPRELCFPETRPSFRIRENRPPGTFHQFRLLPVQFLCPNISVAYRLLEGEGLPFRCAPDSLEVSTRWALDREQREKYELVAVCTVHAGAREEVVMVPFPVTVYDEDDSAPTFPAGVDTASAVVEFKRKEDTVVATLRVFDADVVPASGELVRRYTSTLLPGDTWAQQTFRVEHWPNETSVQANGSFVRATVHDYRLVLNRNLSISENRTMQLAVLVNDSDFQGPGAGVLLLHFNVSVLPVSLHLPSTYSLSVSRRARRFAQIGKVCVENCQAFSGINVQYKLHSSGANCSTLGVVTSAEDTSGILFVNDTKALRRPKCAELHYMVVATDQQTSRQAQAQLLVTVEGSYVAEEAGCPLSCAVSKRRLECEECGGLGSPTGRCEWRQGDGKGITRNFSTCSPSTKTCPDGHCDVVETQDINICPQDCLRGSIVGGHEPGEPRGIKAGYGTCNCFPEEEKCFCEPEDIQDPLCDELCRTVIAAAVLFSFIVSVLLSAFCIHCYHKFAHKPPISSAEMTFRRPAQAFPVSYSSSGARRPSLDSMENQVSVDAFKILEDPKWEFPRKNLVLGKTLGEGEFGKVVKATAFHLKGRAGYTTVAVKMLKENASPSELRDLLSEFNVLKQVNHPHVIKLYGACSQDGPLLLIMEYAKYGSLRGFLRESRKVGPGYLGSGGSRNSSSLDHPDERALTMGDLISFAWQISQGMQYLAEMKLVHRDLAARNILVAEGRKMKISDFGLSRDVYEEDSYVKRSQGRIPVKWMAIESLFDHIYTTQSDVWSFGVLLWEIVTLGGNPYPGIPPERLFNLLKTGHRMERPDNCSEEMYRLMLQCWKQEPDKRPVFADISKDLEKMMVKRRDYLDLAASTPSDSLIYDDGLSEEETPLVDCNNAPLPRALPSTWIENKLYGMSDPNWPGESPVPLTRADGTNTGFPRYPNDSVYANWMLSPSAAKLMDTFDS
Procedure: Enzyme reaction substrate Poly(Glu, Tyr)4:1 was diluted with potassium-free PBS (10 mM sodium phosphate buffer, 150 mM NaCl, pH 7.2-7.4) to 20 μg/mL. The enzyme label plate was coated with 125 μL/well. The reaction was conducted under 37° C. for 12-16 hours. After the liquid was removed from the wells, the plate was washed three times with 200 μL/well of T-PBS (PBS containing 0.1% Tween-20), each for 5 minutes. The enzyme plate was dried in 37° C. dryer for 1-2 hours.
50 μL ATP solution diluted with buffer (50 mM HEPES pH 7.4, 50 mM MgCl2, 0.5 mM MnCl2, 0.2 mM Na3VO4, 1 mM DTT) to a final concentration of 5 μM was added into each well. The compound was diluted with DMSO to a suitable concentration (1 μL/well) or the well contained the corresponding concentration of DMSO (negative control well) Then various kinase recombinant proteins diluted with 49 μL of reaction buffer was added to initiate the reaction. Each experiment required duplicate enzyme-free control well. The reaction was carried out for 1 hour on a 37° C. Shaker (100 rpm). […] The reaction was quenched with 2M H2SO4 (50 μL/well), and read at 490 nm using a tunable microplate reader SPECTRA MAX 190.
The inhibition ratio of the sample was determined by the following formula: […]
The IC50 values were obtained via four-parameter regression analysis using the software supplied with the microplate reader. […]

KDR = KDR (Homo sapiens, UniProt P35968); assay: Inhibition of receptor tyrosine kinase activity at molecular level (ELISA, Poly(Glu,Tyr)4:1 substrate phosphorylation); format: biochemical; settings: 10 nM compound; average of two independent experiments
Sequence of KDR (P35968 20-1356): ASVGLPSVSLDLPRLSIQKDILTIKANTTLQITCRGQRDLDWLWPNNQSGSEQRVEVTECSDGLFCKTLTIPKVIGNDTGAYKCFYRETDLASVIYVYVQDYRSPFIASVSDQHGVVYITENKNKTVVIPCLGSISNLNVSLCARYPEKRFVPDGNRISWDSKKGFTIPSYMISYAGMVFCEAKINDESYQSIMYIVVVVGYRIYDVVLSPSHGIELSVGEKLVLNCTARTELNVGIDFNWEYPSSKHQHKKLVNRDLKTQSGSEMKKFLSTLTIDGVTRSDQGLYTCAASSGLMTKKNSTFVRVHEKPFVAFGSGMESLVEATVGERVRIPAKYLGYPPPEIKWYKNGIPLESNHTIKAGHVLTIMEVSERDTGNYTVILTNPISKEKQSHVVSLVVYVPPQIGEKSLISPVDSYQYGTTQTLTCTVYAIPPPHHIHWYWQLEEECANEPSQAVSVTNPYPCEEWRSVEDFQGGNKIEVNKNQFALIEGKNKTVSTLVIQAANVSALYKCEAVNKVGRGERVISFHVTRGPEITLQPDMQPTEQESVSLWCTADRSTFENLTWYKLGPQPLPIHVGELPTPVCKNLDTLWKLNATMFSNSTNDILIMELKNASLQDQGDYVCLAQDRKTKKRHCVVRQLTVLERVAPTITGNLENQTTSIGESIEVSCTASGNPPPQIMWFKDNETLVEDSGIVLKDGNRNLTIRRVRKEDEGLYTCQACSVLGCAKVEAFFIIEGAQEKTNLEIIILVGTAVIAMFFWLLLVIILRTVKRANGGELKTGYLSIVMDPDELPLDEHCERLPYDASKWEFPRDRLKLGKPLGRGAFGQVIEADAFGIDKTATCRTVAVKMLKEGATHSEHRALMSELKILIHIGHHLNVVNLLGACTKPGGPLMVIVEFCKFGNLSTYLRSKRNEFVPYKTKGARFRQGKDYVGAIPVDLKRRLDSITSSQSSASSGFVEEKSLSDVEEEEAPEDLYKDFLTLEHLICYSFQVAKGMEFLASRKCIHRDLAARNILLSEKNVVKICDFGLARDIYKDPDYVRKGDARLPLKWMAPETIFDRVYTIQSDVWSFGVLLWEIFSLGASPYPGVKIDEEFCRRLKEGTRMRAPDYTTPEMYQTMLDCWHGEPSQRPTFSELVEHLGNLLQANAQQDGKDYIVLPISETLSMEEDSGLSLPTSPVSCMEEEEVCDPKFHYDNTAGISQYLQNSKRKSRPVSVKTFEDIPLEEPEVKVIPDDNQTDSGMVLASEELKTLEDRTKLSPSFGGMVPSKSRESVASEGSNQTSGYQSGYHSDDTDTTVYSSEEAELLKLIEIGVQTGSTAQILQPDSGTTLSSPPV

FGFR1 = FGFR1 (Homo sapiens, UniProt P11362); assay: as above; format: biochemical; settings: 10 nM compound; average of two independent experiments
Sequence of FGFR1 (P11362 22-822): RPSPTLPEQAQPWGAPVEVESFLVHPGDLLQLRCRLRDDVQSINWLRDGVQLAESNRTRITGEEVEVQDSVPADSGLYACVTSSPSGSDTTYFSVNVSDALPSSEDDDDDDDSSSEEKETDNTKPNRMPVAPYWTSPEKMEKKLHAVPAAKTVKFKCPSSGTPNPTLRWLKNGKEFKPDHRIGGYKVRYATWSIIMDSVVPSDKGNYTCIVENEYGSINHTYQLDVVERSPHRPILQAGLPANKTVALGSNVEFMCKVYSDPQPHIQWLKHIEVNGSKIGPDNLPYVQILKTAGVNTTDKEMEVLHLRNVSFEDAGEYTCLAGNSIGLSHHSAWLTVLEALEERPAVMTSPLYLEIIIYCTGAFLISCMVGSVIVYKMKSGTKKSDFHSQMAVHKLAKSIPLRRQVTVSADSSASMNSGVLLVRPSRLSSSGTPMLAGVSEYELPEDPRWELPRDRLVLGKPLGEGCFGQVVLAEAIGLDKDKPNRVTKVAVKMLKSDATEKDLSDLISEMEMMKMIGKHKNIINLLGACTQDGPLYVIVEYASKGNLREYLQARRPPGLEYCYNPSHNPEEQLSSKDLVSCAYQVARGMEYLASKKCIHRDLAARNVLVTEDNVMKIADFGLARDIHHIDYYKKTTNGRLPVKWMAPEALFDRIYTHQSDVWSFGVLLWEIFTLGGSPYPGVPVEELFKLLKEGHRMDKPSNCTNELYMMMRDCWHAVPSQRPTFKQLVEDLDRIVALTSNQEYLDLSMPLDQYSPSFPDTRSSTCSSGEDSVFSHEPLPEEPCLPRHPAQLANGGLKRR

RET = RET (Homo sapiens, UniProt P07949); assay: as above; format: biochemical
Sequence of RET (P07949 29-1114): as the sequence (P07949 29-1114 V804M) above, with M776V counted along it
Summary of the method: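 Poly(Glu,Tyr)4:1-coated plates (20 μg/mL) were incubated with recombinant kinase, compound and 5 μM ATP (final) in HEPES pH 7.4 buffer with MgCl2/MnCl2/Na3VO4/DTT for 1 h at 37 °C. Phosphotyrosine was detected with PY99 and HRP anti-mouse IgG plus OPD at 490 nm. IC50 came from four-parameter regression.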

[2] = Pharmacokinetic experiment in rat (IV and PO, plasma LC-MS/MS); settings: SD rats
Procedure: (§1) Ponatinib (AP24534) was administered intravenously (IV) and orally (PO) to SD rats. Blood samples were taken at different time points. LC-MS/MS was used to determine the concentration of compound in the plasma of rats after administration of the test compound, and the relevant pharmacokinetic parameters were calculated to examine oral bioavailability and pharmacokinetic properties of the compound in rats.
as §1, with “Compound HuFGFR267” for “Ponatinib (AP24534)”, “intravenously” for “intravenously (IV)”, “orally” for “orally (PO)”

Compound: CN1CCN(Cc2ccc(NC(=O)c3ccc(Cl)c(C#Cc4cccnc4N)c3)cc2C(F)(F)F)CC1 [Example 1, 3-(2-aminopyridine-3-ethynyl)-4-chloro-N-(4-((4-methylpiperazin-1-yl)methylene)-3-(trifluoromethyl)phenyl)benzamide]
- inhibition of RET phosphorylation and downstream signaling pathway (Western blot, FIG. 1) [1]: inhibited RET phosphorylation and the downstream signaling pathway
- IC50 (Ret (V804M)): 8.4 ± 1.7 nM
- 10 nM inhibition ratio KDR (KDR): 45.1
- 10 nM inhibition ratio FGFR1 (FGFR1): 77.7
- 10 nM inhibition ratio RET (RET; 10 nM compound, average of two independent experiments): 87.6
- IC50 (RET; measured twice, Mean ± SD): 1.4 ± 0.6 nM
- AUC0-t ([2]; IV (2 mg/kg)): 2720 ng·h/mL
- CLplasma ([2]; IV (2 mg/kg)): 11.9 mL/min/kg
- T1/2 ([2]; IV (2 mg/kg)): 6.00 h
- Vdss ([2]; IV (2 mg/kg)): 4.88 L/kg
- AUC0-t ([2]; PO (10 mg/kg)): 4961 ng·h/mL
- Cmax ([2]; PO (10 mg/kg)): 346 ng/mL
- T1/2 ([2]; PO (10 mg/kg)): 10.5 h
- Tmax ([2]; PO (10 mg/kg)): 5.33 h
- F ([2]; PO (10 mg/kg) vs IV (2 mg/kg)): 36.5%
